Test results reported in US10385024B2, “Compounds and methods for inhibiting NHE-mediated antiport in the treatment of disorders associated with fluid retention or salt overload and gastrointestinal tract disorders” (Ardelyx, Inc., priority 2012, dated 2019).

Key:
[1] = target: T1, Rat NHE-3 (Rattus norvegicus, UniProt P26433); test: Cell-based assay of NHE-3 activity (persistent inhibition, after washout); details: OK cells with rat NHE-3 gene, 60 min incubation, recovery initiated 40 min after compound washout; for IC50: read-out: Rat NHE3 pIC50 (persistent) (converted)
T1 construct: expressed in transfected cells; host or cells: Opossum kidney (OK) cells (ATCC), transfected by electroporation
Experimental: The ability of compounds to inhibit Rat NHE-3-mediated Na^+-dependent H^+ antiport after application and washout was measured using a modification of the pH sensitive dye method described above in Example 74. Opossum kidney (OK) cells were obtained from the ATCC and propagated per their instructions. The rat NHE-3 gene was introduced into OK cells via electroporation, and cells were seeded into 96 well plates and grown overnight. Medium was aspirated from the wells, cells were washed twice with NaCl-HEPES buffer (100 mM NaCl, 50 mM HEPES, 10 mM glucose, 5 mM KCl, 2 mM CaCl2, 1 mM MgCl2, pH 7.4), then overlayed with NaCl-HEPES buffer containing 0-30 μM test compound. After a 60 min incubation, the test drug containing buffer was aspirated from the cells, cells were washed twice with NaCl-HEPES buffer without drug, then incubated for 30 min at room temperature with NH4Cl-HEPES buffer (20 mM NH4Cl, 80 mM NaCl, 50 mM HEPES, 5 mM KCl, 2 mM CaCl2, 1 mM MgCl2, pH 7.4) containing 5 μM BCECF-AM. Cells were washed twice with ammonium free, Na^+-free HEPES (100 mM choline, 50 mM HEPES, 10 mM glucose, 5 mM KCl, 2 mM CaCl2, 1 mM MgCl2, pH 7.4) and incubated in the same buffer for 10 minutes at room temperature to lower intracellular pH. […] Initial rates were plotted as the average 2 or more replicates, and pIC50 values were estimated using GraphPad Prism.

[2] = target: T2, human NHE-3 (Homo sapiens, UniProt P48764); test: Cell-based assay of NHE-3 activity (human NHE3 inhibition assay); details: OK cells with human NHE-3 gene, BCECF pH dye, 0-30 μM test compound; for IC50: read-out: Human NHE3 pIC50 (converted)
T2 construct: expressed in transfected cells; host or cells: Opossum kidney (OK) cells (ATCC), transfected by electroporation
T2 sequence (P48764 26-834): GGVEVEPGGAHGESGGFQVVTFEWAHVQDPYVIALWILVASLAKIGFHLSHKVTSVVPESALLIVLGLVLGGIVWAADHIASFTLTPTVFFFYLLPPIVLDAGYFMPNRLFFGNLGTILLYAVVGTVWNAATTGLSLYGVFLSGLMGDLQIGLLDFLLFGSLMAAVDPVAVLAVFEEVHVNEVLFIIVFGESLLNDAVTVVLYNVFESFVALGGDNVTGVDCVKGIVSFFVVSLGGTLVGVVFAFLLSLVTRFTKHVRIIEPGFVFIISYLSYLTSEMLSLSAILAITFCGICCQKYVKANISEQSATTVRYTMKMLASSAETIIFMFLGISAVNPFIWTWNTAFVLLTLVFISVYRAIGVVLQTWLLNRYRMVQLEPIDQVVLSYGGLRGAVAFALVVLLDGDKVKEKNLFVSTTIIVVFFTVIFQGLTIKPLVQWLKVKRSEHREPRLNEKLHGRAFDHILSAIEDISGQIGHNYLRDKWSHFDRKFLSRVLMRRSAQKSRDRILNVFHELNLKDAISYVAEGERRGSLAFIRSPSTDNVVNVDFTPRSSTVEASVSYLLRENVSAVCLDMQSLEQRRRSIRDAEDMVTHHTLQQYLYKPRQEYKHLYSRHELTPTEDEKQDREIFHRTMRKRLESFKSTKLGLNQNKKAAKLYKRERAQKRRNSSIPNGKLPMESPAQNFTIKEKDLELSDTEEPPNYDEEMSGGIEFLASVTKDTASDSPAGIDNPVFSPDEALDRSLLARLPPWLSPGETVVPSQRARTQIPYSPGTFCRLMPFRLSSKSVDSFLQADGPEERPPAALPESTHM
Experimental: (§1) Rat or human NHE-3-mediated Na^+-dependent H^+ antiport was measured using a modification of the pH sensitive dye method originally reported by Paradiso (Proc. Natl. Acad. Sci. USA. (1984) 81(23): 7436-7440). Opossum kidney (OK) cells were obtained from the ATCC and propagated per their instructions. The rat NHE-3 gene (GenBank M85300) or the human NHE-3 gene (GenBank NM_004174.1) was introduced into OK cells via electroporation, and cells were seeded into 96 well plates and grown overnight. Medium was aspirated from the wells, cells were washed twice with NaCl-HEPES buffer (100 mM NaCl, 50 mM HEPES, 10 mM glucose, 5 mM KCl, 2 mM CaCl2, 1 mM MgCl2, pH 7.4), then incubated for 30 min at room temperature with NH4Cl-HEPES buffer (20 mM NH4Cl, 80 mM NaCl, 50 mM HEPES, 5 mM KCl, 2 mM CaCl2, 1 mM MgCl2, pH 7.4) containing 5 μM bis(acetoxymethyl) 3,3′-(3′,6′-bis(acetoxymethoxy)-5-((acetoxymethoxy)carbonyl)-3-oxo-3H-spiro[isobenzofuran-1,9′-xanthene]-2′,7′-diyl)dipropanoate (BCECF-AM). Cells were washed twice with Ammonium free, Na^+-free HEPES (100 mM choline, 50 mM HEPES, 10 mM glucose, 5 mM KCl, 2 mM CaCl2, 1 mM MgCl2, pH 7.4) and incubated in the same buffer for 10 minutes at room temperature to lower intracellular pH. […] Initial rates were plotted as the average 2 or more replicates, and pIC50 values were estimated using GraphPad Prism.

[3] = target: T1, Rat NHE-3; test: Cell-based assay of NHE-3 activity (rat NHE-3 prompt inhibition); details: OK cells with rat NHE-3 gene, compound present during pH recovery; for IC50: read-out: Rat NHE3 pIC50 (prompt) (converted)
Experimental: as §1

T1 sequence (P26433 29-831): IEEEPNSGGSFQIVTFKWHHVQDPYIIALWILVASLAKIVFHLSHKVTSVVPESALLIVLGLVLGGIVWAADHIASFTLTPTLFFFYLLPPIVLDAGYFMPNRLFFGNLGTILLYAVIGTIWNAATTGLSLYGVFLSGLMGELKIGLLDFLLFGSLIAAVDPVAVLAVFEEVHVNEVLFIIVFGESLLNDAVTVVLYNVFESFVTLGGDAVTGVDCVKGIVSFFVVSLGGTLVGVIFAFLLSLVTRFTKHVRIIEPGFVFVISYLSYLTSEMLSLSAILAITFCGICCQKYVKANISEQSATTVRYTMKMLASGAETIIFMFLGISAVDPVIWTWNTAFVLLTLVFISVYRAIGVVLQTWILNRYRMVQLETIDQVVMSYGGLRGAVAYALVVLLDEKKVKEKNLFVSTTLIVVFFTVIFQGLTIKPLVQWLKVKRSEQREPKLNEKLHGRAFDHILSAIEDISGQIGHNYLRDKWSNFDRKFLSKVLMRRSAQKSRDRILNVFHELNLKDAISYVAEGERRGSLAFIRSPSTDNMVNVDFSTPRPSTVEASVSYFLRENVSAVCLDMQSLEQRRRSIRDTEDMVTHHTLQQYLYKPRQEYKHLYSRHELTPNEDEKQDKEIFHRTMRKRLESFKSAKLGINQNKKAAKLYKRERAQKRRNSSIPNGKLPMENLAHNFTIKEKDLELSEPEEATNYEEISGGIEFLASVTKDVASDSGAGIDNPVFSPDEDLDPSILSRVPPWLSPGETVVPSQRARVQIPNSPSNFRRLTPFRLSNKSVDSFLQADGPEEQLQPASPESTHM

| Rat NHE3 pIC50 (persistent) [1] | Human NHE3 pIC50 [2] | Rat NHE3 pIC50 (prompt) [3] | IC50 [1] [nM] | IC50 [2] [nM] | IC50 [3] [nM] | SMILES |
| --- | --- | --- | --- | --- | --- | --- |
| C (C NHE3 pIC50 > 7) | C (C NHE3 pIC50 > 7) | B (B NHE3 pIC50 5-7) | – | – | – | CN1Cc2c(Cl)cc(Cl)cc2[C@H](c2cccc(S(=O)(=O)NCCOCCOCCNC(=O)NCCN(CCNC(=O)NCCOCCOCCNS(=O)(=O)c3cccc([C@@H]4CN(C)Cc5c(Cl)cc(Cl)cc54)c3)C(=O)CCOCCOCCOCCOCCOCCC(=O)N(CCNC(=O)NCCOCCOCCNS(=O)(=O)c3cccc([C@@H]4CN(C)Cc5c(Cl)cc(Cl)cc54)c3)CCNC(=O)NCCOCCOCCNS(=O)(=O)c3cccc([C@@H]4CN(C)Cc5c(Cl)cc(Cl)cc54)c3)c2)C1 [Example 59] |
| – | B (B NHE3 pIC50 5-7) | – | – | – | – | CN1Cc2c(Cl)cc(Cl)cc2[C@H](c2cccc(S(=O)(=O)NCCOCCOCCNC(=O)CCC(CCC(=O)NCCOCCOCCNS(=O)(=O)c3cccc([C@@H]4CN(C)Cc5c(Cl)cc(Cl)cc54)c3)(CCC(=O)NCCOCCOCCNS(=O)(=O)c3cccc([C@@H]4CN(C)Cc5c(Cl)cc(Cl)cc54)c3)NC(=O)c3ccc(-c4ccc(Cl)cc4)cc3)c2)C1 [Example 35] |
| – | – | – | < 100 | < 100 | 100 to 10000 | CCCCCCCCOc1ccc(CNC(CCC(=O)NCCOCCOCCOCCNS(=O)(=O)c2cccc([C@@H]3CN(C)Cc4c(Cl)cc(Cl)cc43)c2)(CCC(=O)NCCOCCOCCOCCNS(=O)(=O)c2cccc([C@@H]3CN(C)Cc4c(Cl)cc(Cl)cc43)c2)CCC(=O)NCCOCCOCCOCCNS(=O)(=O)c2cccc([C@@H]3CN(C)Cc4c(Cl)cc(Cl)cc43)c2)cc1 [Example 20, 4-(1-(3-((S)-6,8-dichloro-2-methyl-1,2,3,4-tetrahydroisoquinolin-4-yl)phenylsulfonamido)-13-oxo-3,6,9-trioxa-12-azapentadecan-15-yl)-N^1,N^7-bis(2-(2-(2-(2-(3-((S)-6,8-dichloro-2-methyl-1,2,3,4-tetrahydroisoquinolin-4-yl)phenylsulfonamido)ethoxy)ethoxy)ethoxy)ethyl)-4-(4-(octyloxy)benzylamino)heptanediamide] |
| B (B NHE3 pIC50 5-7) | B (B NHE3 pIC50 5-7) | B (B NHE3 pIC50 5-7) | – | – | – | CN1Cc2c(Cl)cc(Cl)cc2[C@H](c2cccc(S(=O)(=O)NCCOCCOCCOCCNC(=O)CN(CCN(CC(=O)NCCOCCOCCOCCNS(=O)(=O)c3cccc([C@@H]4CN(C)Cc5c(Cl)cc(Cl)cc54)c3)CC(=O)NCCOCCOCCOCCNS(=O)(=O)c3cccc([C@@H]4CN(C)Cc5c(Cl)cc(Cl)cc54)c3)CCN(CC(=O)NCCOCCOCCOCCNS(=O)(=O)c3cccc([C@@H]4CN(C)Cc5c(Cl)cc(Cl)cc54)c3)CC(=O)NCCOCCOCCOCCNS(=O)(=O)c3cccc([C@@H]4CN(C)Cc5c(Cl)cc(Cl)cc54)c3)c2)C1 [Example 49] |
| – | – | – | < 100 | < 100 | < 100 | CN1Cc2c(Cl)cc(Cl)cc2[C@H](c2cccc(S(=O)(=O)NCCOCCOCCOCCNC(=O)CN(CCOCCOCCN(CC(=O)NCCOCCOCCOCCNS(=O)(=O)c3cccc([C@@H]4CN(C)Cc5c(Cl)cc(Cl)cc54)c3)CC(=O)NCCOCCOCCOCCNS(=O)(=O)c3cccc([C@@H]4CN(C)Cc5c(Cl)cc(Cl)cc54)c3)CC(=O)NCCOCCOCCOCCNS(=O)(=O)c3cccc([C@@H]4CN(C)Cc5c(Cl)cc(Cl)cc54)c3)c2)C1 [Example 42, 3,12-bis(14-(3-((S)-6,8-dichloro-2-methyl-1,2,3,4-tetrahydroisoquinolin-4-yl)phenylsulfonamido)-2-oxo-6,9,12-trioxa-3-azatetradecyl)-N^1,N^14-bis(2-(2-(2-(2-(3-((S)-6,8-dichloro-2-methyl-1,2,3,4-tetrahydroisoquinolin-4-yl)phenylsulfonamido)ethoxy)ethoxy)ethoxy)ethyl)-6,9-dioxa-3,12-diazatetradecane-1,14-diamide] |
| – | – | – | < 100 | 100 to 10000 | 100 to 10000 | CN1Cc2c(Cl)cc(Cl)cc2[C@H](c2cccc(S(=O)(=O)NCCOCCOCCOCCNC(=O)CCC(CCC(=O)NCCOCCOCCOCCNS(=O)(=O)c3cccc([C@@H]4CN(C)Cc5c(Cl)cc(Cl)cc54)c3)(CCC(=O)NCCOCCOCCOCCNS(=O)(=O)c3cccc([C@@H]4CN(C)Cc5c(Cl)cc(Cl)cc54)c3)NC(=O)Nc3ccccc3)c2)C1 [Example 13, 4-(1-(3-((S)-6,8-dichloro-2-methyl-1,2,3,4-tetrahydroisoquinolin-4-yl)phenylsulfonamido)-13-oxo-3,6,9-trioxa-12-azapentadecan-15-yl)-N^1,N^7-bis(2-(2-(2-(2-(3-((S)-6,8-dichloro-2-methyl-1,2,3,4-tetrahydroisoquinolin-4-yl)phenylsulfonamido)ethoxy)ethoxy)ethoxy)ethyl)-4-(3-phenylureido)heptanediamide] |
| – | C (C NHE3 pIC50 > 7) | – | – | – | – | CN1Cc2c(Cl)cc(Cl)cc2[C@H](c2cccc(S(=O)(=O)NCCOCCOCCNC(=O)NCCN(CCNC(=O)NCCOCCOCCNS(=O)(=O)c3cccc([C@@H]4CN(C)Cc5c(Cl)cc(Cl)cc54)c3)C(=O)NCCCCNC(=O)N(CCNC(=O)NCCOCCOCCNS(=O)(=O)c3cccc([C@@H]4CN(C)Cc5c(Cl)cc(Cl)cc54)c3)CCNC(=O)NCCOCCOCCNS(=O)(=O)c3cccc([C@@H]4CN(C)Cc5c(Cl)cc(Cl)cc54)c3)c2)C1 [Example 60] |
| – | C (C NHE3 pIC50 > 7) | – | – | – | – | CN1Cc2c(Cl)cc(Cl)cc2[C@H](c2cccc(S(=O)(=O)NCCOCCOCCN(C)C(=O)CCC(CCC(=O)N(C)CCOCCOCCNS(=O)(=O)c3cccc([C@@H]4CN(C)Cc5c(Cl)cc(Cl)cc54)c3)(CCC(=O)N(C)CCOCCOCCNS(=O)(=O)c3cccc([C@@H]4CN(C)Cc5c(Cl)cc(Cl)cc54)c3)N(C)C)c2)C1 [Example 71] |
| – | B (B NHE3 pIC50 5-7) | – | – | – | – | CN1Cc2c(Cl)cc(Cl)cc2[C@H](c2cccc(S(=O)(=O)NCCOCCOCCNC(=O)CN(CCOCCOCCN(CC(=O)NCCOCCOCCNS(=O)(=O)c3cccc([C@@H]4CN(C)Cc5c(Cl)cc(Cl)cc54)c3)CC(=O)NCCOCCOCCNS(=O)(=O)c3cccc([C@@H]4CN(C)Cc5c(Cl)cc(Cl)cc54)c3)CC(=O)NCCOCCOCCNS(=O)(=O)c3cccc([C@@H]4CN(C)Cc5c(Cl)cc(Cl)cc54)c3)c2)C1 [Example 50] |
